{
  "source": "patent US20140328940A1",
  "about": "“MODULATION OF AXON DEGENERATION” (Genentech, Inc., priority 2009, published 2014)",
  "key": {"[1]": {"system": "DRG neurons (axon vs. cell body compartment)", "test": "Campenot chamber local axon degeneration (anti-NGF in axon compartment)", "assay_type": "cell-based, mouse", "protocol": "Teflon dividers (Tyler Research) were cleaned by washing in water and wiping them clean of any residual grease. Dividers were then soaked in Nochromix (Godax Laboratories)/sulfuric acid overnight, rinsed five times in distilled and autoclaved water (SQ water), boiled for 30 minutes, and then air-dried before use\nMouse laminin (5 μg/ml in sterile filtered water; Invitrogen) was added to PDL coated 35 mm dishes (BD Biosciences) and they were incubated for 1 hour at 37° C., followed by two rinses in SQ water. The dishes were vacuum-dried and then air-dried in a laminar flow hood for 15 minutes. Prepared dishes were then scored with a pin rake (Tyler Research). […] High vacuum grease (VWR) was added to each Teflon divider under a dissection scope. The laminin coated PDL dishes were inverted and dropped onto the Teflon divider, with additional pressure added by use of a toothpick in the non-track-containing regions. Dishes were incubated for 1 hour at 37° C. Five hundred microliters of NBM+MC (50 ng/ml NGF) solution was added to each of the side compartments, and a grease barrier was added in front of the center cell slot.\nFree E13.5 spinal cords were dissected from mouse embryos and placed into NBM+MC (25 ng/ml NGF) solution. DRGs were detached from the spinal cord with a tungsten needle. An NBM+MC-lubricated P200 pipette was used to move DRGs into a 1.5 ml tube. DRGs were pelleted with a tabletop centrifuge for 30 seconds. The supernate was discarded and 0.05% Trypsin/EDTA (cold) was added. The pellet was resolubilized with a pipette and incubated at 37° C. for 15 minutes with constant agitation (650 RPM). The sample was again centrifuged and the supernate discarded. The pellet was resuspended in warm NBM+MC (50 ng/ml NGF) solution and triturated with a flamed glass pipette 20 times, followed by trituration with a fire-bored glass pipette another 20 times. The samples were again centrifuged and the resulting pellets were resuspended in 0.5 ml NBM+MC (50 ng/ml NGF) solution. The cells were diluted to a final concentration of 2.5×10^6 cells/ml. The cell suspensions were loaded into a 1 ml syringe with a 22 gauge needle. The center slot of the Campenot divider was filled using the syringe (to a volume of at least 50 μl). The Campenot chamber was incubated overnight at 37° C. 2.5 ml NGF+MC (50 ng/ml NGF) solution was added to the center compartment and the grease gate was removed. The outer medium (cell body compartment) was replaced after three days with 2.5 ml NBM+MC medium (with 25 ng/ml NGF). After five days in culture, one distal compartment was washed three times with warmed NBM+MC (no NGF) solution. After the third wash, 500 μl NBM+MC (no NGF) solution was added to the axon compartment in combination with either 0.5% DMSO or an inhibitor. The cell body compartment was replaced with 2.5 ml NBM+MC medium (with 25 ng/ml NGF) containing either 0.5% DMSO or inhibitor.\nAfter 28 hours of anti-NGF antibody treatment, 8% PFA/30% sucrose solution (see above) was added directly to the culture medium at a 1:1 dilution and incubated for 30 minutes. The Teflon divider was removed after the first 15 minutes of addition. The system was washed once with 2.5 ml PBS prior to immunostaining. Neurons were blocked in 5% BSA/0.2% triton in PBS for 30 minutes. The primary antibody Tuj1 (Covance) was added to a final dilution of 1:1000 in PBS containing 2% BSA and incubated overnight at 4° C. The dish was washed once with PBS. […] The dish was washed twice with PBS, and a 22×22 mm coverslip (VWR) was added with 350 μl of fluoromount G (Electron Microscopy Sciences). The neurons were visualized by use of a fluorescence microscope.\nAs described above, E13.5 DRGs were isolated and grown for 5 days in a Campenot chamber."}, "[2]": {"system": "cerebellar granule neurons (CGNs)", "test": "serum deprivation/KCl reduction degeneration of cerebellar granule neurons", "assay_type": "cell-based, mouse", "details": "5 mM KCl, 24 hours"}, "ErbB kinase [3]": {"molecular_target": "ErbB kinase", "details": "read-out: Cellular IC50; heregulin induced tyrosine phosphorylation, MDA-MB-453 cells; published source; cited from earlier work"}, "ErbB kinase [4]": {"molecular_target": "ErbB kinase (Homo sapiens, UniProt P04626)", "sequence (P04626 23-1255)": "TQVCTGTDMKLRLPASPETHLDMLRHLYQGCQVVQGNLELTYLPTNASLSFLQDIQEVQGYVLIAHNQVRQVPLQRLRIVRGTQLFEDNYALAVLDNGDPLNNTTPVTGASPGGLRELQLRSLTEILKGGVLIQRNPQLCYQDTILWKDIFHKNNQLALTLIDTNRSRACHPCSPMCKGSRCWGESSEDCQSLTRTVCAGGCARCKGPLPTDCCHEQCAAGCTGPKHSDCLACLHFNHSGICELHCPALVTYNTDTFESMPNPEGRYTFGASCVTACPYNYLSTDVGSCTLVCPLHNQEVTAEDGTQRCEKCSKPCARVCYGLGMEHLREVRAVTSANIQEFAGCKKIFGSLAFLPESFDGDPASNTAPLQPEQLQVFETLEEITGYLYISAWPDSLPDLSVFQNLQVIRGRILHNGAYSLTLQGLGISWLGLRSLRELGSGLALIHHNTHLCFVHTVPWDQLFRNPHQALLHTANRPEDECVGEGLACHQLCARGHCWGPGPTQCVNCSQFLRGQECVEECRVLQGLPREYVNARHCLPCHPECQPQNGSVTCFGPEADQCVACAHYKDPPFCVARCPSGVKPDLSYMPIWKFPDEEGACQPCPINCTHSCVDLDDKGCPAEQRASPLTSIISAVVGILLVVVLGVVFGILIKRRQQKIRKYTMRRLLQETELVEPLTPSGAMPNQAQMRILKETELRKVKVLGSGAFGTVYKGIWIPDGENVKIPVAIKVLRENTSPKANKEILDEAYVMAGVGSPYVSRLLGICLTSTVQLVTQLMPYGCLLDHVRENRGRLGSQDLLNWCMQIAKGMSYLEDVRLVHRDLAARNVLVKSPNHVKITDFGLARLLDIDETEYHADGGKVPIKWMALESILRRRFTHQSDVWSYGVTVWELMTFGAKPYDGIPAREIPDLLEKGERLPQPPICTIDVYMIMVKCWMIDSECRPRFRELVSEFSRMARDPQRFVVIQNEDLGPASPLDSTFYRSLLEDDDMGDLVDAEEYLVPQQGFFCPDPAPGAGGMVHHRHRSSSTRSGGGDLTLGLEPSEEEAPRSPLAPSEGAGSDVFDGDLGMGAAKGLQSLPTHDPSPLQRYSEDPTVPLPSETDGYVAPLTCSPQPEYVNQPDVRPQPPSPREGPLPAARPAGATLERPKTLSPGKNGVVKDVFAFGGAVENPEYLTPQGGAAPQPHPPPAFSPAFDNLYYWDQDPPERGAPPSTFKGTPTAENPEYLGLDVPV", "details": "protein tyrosine phosphorylation, 3T3-Her2 cells; published source; read-out: Cellular IC50; cited from earlier work"}, "[5]": {"test": "peripheral neuropathy in patients treated with paclitaxel (adverse event analysis)", "assay_type": "in vivo, human", "details": "combination with paclitaxel; first 400 patients enrolled; placebo+paclitaxel 26.4%; p=0.012 Fisher's exact", "excerpt": "Tarceva® (erlotinib) is an EGFR kinase inhibitor. Treatment of patients with paclitaxel and other chemotherapeutic agents is known to lead to peripheral neuropathy (reviewed in Wilkes, Semin. Oncol. Nurs. 23(3):162-173, 2007)."}, "[6]": {"system": "dorsal spinal cord explants", "test": "dorsal spinal cord (DSC) explant degeneration", "assay_type": "cell-based", "details": "3.4 μM, 11.1 μM, 33.3 μM, and 100 μM", "from_the_text": "DSCs grow out axons over a period of days, but if they are not rescued with the addition of a survival factor, they will eventually degenerate."}, "[7]": {"test": "toxin-induced degeneration of sympathetic neurons (MTT assay)", "assay_type": "cell-based", "details": "Sprague-Dawley, rat, primary sympathetic neurons from cervical ganglia, 24 hour camptothecin, read-out: % viability (normalized)", "protocol": "Sympathetic cervical ganglia were dissected from postnatal day 1 Sprague-Dawley rats (Charles River Labs) and collected in a dish containing Ultraculture media (Lonza) with 5% fetal bovine serum (Invitrogen). Ganglia were washed twice with serum-free Ultraculture media, and a final concentration of 0.1% trypsin (Worthington) was added and incubated with the tissue at 37° C. for 30 minutes. One percent DNase (Roche) solution in PBS was added to the ganglia and incubated at room temperature for 1-2 minutes. Ganglia were washed with Ultraculture and allowed to settle to the bottom of the tube. All wash media were removed and 1 mL plating media containing Ultraculture, 5% rat serum, 1% penicillin-streptomycin, 1% glutamax, 7 μM cytosine arabinoside (Sigma), and 50 ng/mL nerve growth factor (2.5S, Cedarlane Laboratory) was added to the tube. Ganglia were dissociated by trituration using a pipet (Rainin). The cell slurry was filtered over a […] cell strainer (Falcon) and cell number was counted. Sympathetic neurons were plated at a density of 5000-7500 cells/well (96-well dish), 200,000 cells/well (6-well plate), or 100,000 cells/well (8-well chamber slide) and grown for 4-5 days in 5% CO2 at 37° C. Every other day neurons were fed with fresh plating media containing 5-10 ng/mL NGF.\nNGF withdrawal assays were performed as described in Example 14A. […]"}, "[8]": {"system": "dorsal root ganglion neurons", "test": "EGF addition to DRG neurons maintained in NGF: degeneration", "assay_type": "cell-based, mouse", "details": "100 μg/mL EGF", "protocol": "Experiments were carried out to assess the effects of activation of EGFR by ligands, including EGF.\n(§1) Dorsal Root Ganglia (DRG) immunoblots were prepared as follows. Primary cells used in the experiments were Charles River CD-1 E13 Dorsal Root Ganglia (DRG). The cells were maintained in N3/F12 (+25 ng/ml NGF) medium (Ham's F12 (23 ml), N3 supplement (1 ml), glucose (1 ml of 1 M glucose stock), 25 ng/ml Nerve Growth Factor 2.5 S, mouse (Roche 11362348001) in Ham's F12 (stock: 50 μg/ml-80° C.), which was filter-sterilized prior to use). The experiments also employed Triton lysis buffer (20 mM Tris pH 7.5, 150 mM NaCl, 0.1% Triton-X100, 100× Phosphatase inhibitor cocktail I (added fresh), 100× Phosphatase inhibitor cocktail II (added fresh), 1 tablet/10 ml Protease inhibitor tablet (added fresh)).\nDRG explants were prepared on Day 0. Embryo dissections were carried out in L15 medium (dissection tools were soaked in 70% isopropanol, and dishes were set up on ice: 10 cm dishes (4 embryos per dish) and one 6 cm dish for spinal cords). E13.5 spinal cords were extracted into DMEM+10% FBS. […]\n(§2) The goal of these experiments was to see if activation of EGFR by EGF would be sufficient to drive degeneration. […] To ensure that EGF is capable of activating EGFR/ErbBs in the neuronal cultures used in these assays, ERK activation was assessed (ERK is a downstream target of EGFR)."}, "ERK": {"system": "ERK", "test": "ERK activation by EGF in DRG cultures (Western blot)", "assay_type": "cell-based, mouse", "details": "100 μg/mL EGF; 30 minutes to 1 hour", "protocol": "as §1\nDRG explants were prepared on Day 0. […]\nImmunoblotting was carried out by aspiration of media with a pipette tip, washing twice with ice-cold sterile PBS, and removal of all PBS using an aspirator with a pipette tip or kimwipes. […] Quantification was carried out by choosing a background method and standard bands that minimize negative/counter-intuitive values: i.e., top/bottom, right/left, user-defined (user-defined). […]\nas §2"}, "DRGs": {"system": "DRGs", "test": "G-protein/GPCR inhibitors in NGF withdrawal-induced degeneration in DRGs", "assay_type": "cell-based, mouse", "details": "0.01 μg/mL, 0.1 μg/mL, or 1 μg/mL (FIG. 51)", "protocol": "The assays described herein identified several inhibitors of G-proteins and G-protein coupled receptors (GPCRs) that decrease degeneration in neurons. Experiments were performed in DRGs to verify the role of G-proteins and GPCRs in degeneration pathways. The experimental protocols used in these experiments are the same as those described in Example 14. Pertussis toxin and SCH 202676 were purchased from Tocris Bioscience."}},
  "note": "“Also recorded” adds a separate entry of the source.",
  "data": [
    {"molecule": "N#C/C(=C\\c1ccc(O)c(O)c1)C(=O)NCCCc1ccccc1", "note": "[AG555]", "values": [
      {"measurement": "formation of varicosities in locally NGF-deprived axons", "setting": "[1]; 30 μM SB415, 15 μM Act D in cell body compartment, 10 μM AG555, 30 μM SB239 in axon compartment", "value": "fewer varicosities"},
      {"measurement": "Axon Compartment (protection of NGF-deprived axons)", "setting": "[1]; inhibitor 10 μM in axon compartment", "value": "did not degenerate; also recorded: protected from local degeneration; also recorded: Yes (4)"},
      {"measurement": "Cell Body Compartment (protection of NGF-deprived axons)", "setting": "[1]; inhibitor 10 μM in cell body compartment", "value": "failed to prevent degeneration; also recorded: No (4)"},
      {"measurement": "protection of cerebellar granule neurons from serum deprivation/KCl reduction", "setting": "[2]; 1 μM", "value": "protect"},
      {"measurement": "protection of cerebellar granule neurons from serum deprivation/KCl reduction", "setting": "[2]; 10 μM", "value": "protect"},
      {"measurement": "IC50", "setting": "ErbB kinase [3]", "value": 5, "unit": "nM"}
    ]},
    {"molecule": "C=CC(=O)Nc1ccc2ncnc(Nc3cccc(Br)c3)c2c1", "note": "[PD168393]", "values": [
      {"measurement": "Axon Compartment (protection of NGF-deprived axons)", "setting": "[1]; inhibitor 5 μM in axon compartment", "value": "Yes (1)"},
      {"measurement": "Cell Body Compartment (protection of NGF-deprived axons)", "setting": "[1]; inhibitor 5 μM in cell body compartment", "value": "No (1)"},
      {"measurement": "IC50", "setting": "ErbB kinase [4]", "value": 100, "unit": "nM"}
    ]},
    {"molecule": "C#Cc1cccc(Nc2ncnc3cc(OCCOC)c(OCCOC)cc23)c1", "note": "[Tarceva, N-(3-ethynylphenyl)-6,7-bis(2-methoxyethoxy)quinazolin-4-amine]", "values": [
      {"measurement": "patients with peripheral neuropathy", "setting": "[5]", "value": "16.3 % of patients"},
      {"measurement": "degeneration in dorsal spinal cord explants", "setting": "[6]", "value": "can delay; also recorded: blocks"}
    ]},
    {"molecule": "CC[C@@]1(O)C(=O)OCc2c1cc1n(c2=O)Cc2cc3ccccc3nc2-1", "note": "[camptothecin]", "values": [
      {"measurement": "viability at 24 h", "setting": "[7]", "value": 79, "unit": "%"}
    ]},
    {"molecule": "EGF: ErbB1 ligand added to DRG neurons", "values": [
      {"measurement": "induction of axon degeneration", "setting": "[8]", "value": "does not cause degeneration"},
      {"measurement": "ERK activity (phosphorylation of ERK, Western blot)", "setting": "ERK", "value": "increased"}
    ]},
    {"molecule": "Pertussis toxin", "values": [
      {"measurement": "degeneration in neurons following NGF withdrawal", "setting": "DRGs", "value": "decreases"}
    ]}
  ]
}
